Experiment [1] deals with Staphylococcus epidermidis. Briefly: Growth of other bacteria and fungi. It is filed as cell-based.
In another experiment the test system is IEC-6 cells. The experiment in a line: [3H]thymidine incorporation into DNA in IEC-6 cells. It counts as cell-based, rat. From the text:
Growth stimulation by peptide 77-97 was additive with that of EGF. […] HAE cells were used to test whether AMP-18 can exert an effect on epithelial cells that exist in the local environment of its synthesis. These cells, provided by Dr. Duane Smoot, Howard University College of Medicine, are not completely immortalized and therefore have limited passage number. Growth stimulation of HAE cells by peptide 77-97 was apparently additive with that of EGF (FIG. 16, left panel). Not only does the AMP peptide stimulate growth but it also acted as a motogen, resulting in more rapid migration (restitution) of cells into scrape wounds made in confluent cultures. […] Near-maximal growth stimulation was detected at an AMP peptide concentration of 0.5 μg/ml (0.23 μM) (FIG. 15, center panel), a much lower value than the concentration needed for trefoil peptides (1 μg/μl) (˜150 μM) or the α-defensin, cryptdin 3 ([…]) (˜140 μM) to exert their effects in culture. […]
Non-transformed monkey kidney epithelial cell line BSC-1 and other epithelial cell lines were used to assess effects on growth. […] AMP-18 preparations were added to the culture medium and 4 days later the cell monolayer was rinsed, detached with trypsin, and the cells were counted using a hemocytometer. […]
A general note: Dividing cells build labelled thymidine or BrdU into new DNA.

Another experiment concerns Klebsiella pneumoniae. The experiment in a line: Growth of other bacteria and fungi. It is filed as cell-based.
A further experiment relates to Enterococcus faecalis. The experiment in a line: Growth of other bacteria and fungi. It counts as cell-based.
A further experiment concerns Streptococcus agalactiae. Briefly: Growth of other bacteria and fungi. It is filed as cell-based.
Experiment [2] deals with BSC-1 epithelial cell line. Briefly: Growth (mitogenesis) assay on confluent BSC-1 cells, cells counted 4 days later. It is filed as cell-based, monkey. The settings on record: compared with related peptides. The source says: Finding that a 42-amino acid peptide representing a central region of the novel antrum mucosal cell protein AMP-18 had mitogenic activity similar in character to that of the intact protein in pig and mouse antrum extracts (Table 1), has facilitated the characterization of the bio-active region of the molecule. […] Growth activity determinations have so far been accomplished with the kidney epithelial cell line as well as several gastric and intestinal lines.
Non-transformed monkey kidney epithelial cell line BSC-1 and other epithelial cell lines were used to assess effects on growth. In general, conditions were chosen for each line such that cells are grown to confluence in plastic dishes in supplemented growth medium with minimal calf (or fetal) serum for growth (Lieske et al., 1997); BSC-1 cells become confluent at 10^6/60 mm dish with 1% calf serum. At the start of the growth assay the medium on the confluent culture was aspirated and replaced with fresh medium with minimal serum to maintain viability (0.01% for BSC-1) cells. AMP-18 preparations were added to the culture medium and 4 days later the cell monolayer was rinsed, detached with trypsin, and the cells were counted using a hemocytometer. Determination of the capacity of AMP-18 to initiate DNA synthesis was measured by the incorporation of [^3H]thymidine (Toback, 1980); to confirm the DNA synthesis assay, autoradiograms of leveled cells were counted (Kartha and Toback, 1985).

Experiment [3] deals with mice with DSS-induced colitis. Briefly: DSS-induced colitis in mice (blood in stool, body weight). It counts as in vivo, C57BL/6 male mice. As to conditions: P<0.01. As to the method:
FIG. 27, Left Panel: Effect of AMP peptide on appearance of blood in the stool of mice with DSS-induced colitis. Mice (n=50) were given 3% dextran sulfate sodium, and stools were assayed daily for the presence of blood. Appearance of bloody diarrhea was delayed in animals treated with AMP peptide (10 mg/kg body weight/day) compared to those given the vehicle (P<0.01). Right panel: Effect of treatment with AMP peptide on body weight of mice with DSS colitis. After animals (n=20) received 3% DSS to drink for 4 days, they were switched to water (day 0 on graph).
To evaluate the therapeutic efficacy of AMP peptide in vivo, colitis of mild to moderate severity was induced in C57BL/6 male mice by giving the animals DSS (3%) dissolved in tap water to drink ad libitum. Evidence of colitis (blood in the stool assayed by hemoccult strips) was found as early as day 1 (FIG. 27, left panel), and in all animals given injections of the vehicle subcutaneously (s.c.) by day 4. AMP peptide was administered s.c. one day before animals were given DSS, and once per day thereafter. Bloody stool was detected in fewer animals given AMP peptide than the vehicle (P<0.01; n=50).
To look for a systemic effect of treatment with AMP peptide during the development of DSS colitis, body weight was measured. During the first 4 days of DSS administration, body weight changed little in peptide- or vehicle-treated mice. Then DSS was discontinued, the animals were given water to drink (day 0; FIG. 27, right panel), and measurements of weight were continued. […] Because DSS treatment appeared to injure barrier function in monolayer cultures of C2 cells, assessed as a decrease in TER (FIG. 22) and reduced occludin in the detergent-insoluble fraction (FIG. 36), a question was whether DSS might adversely affect the content of this TJ protein in vivo. […] Occludin levels in the NP-40-insoluble fraction were assessed by immunoblotting. […]

“Also recorded” adds a separate entry of the source.

We go through 1 sequence from patent US7629317B2, “Control of growth and repair of gastro-intestinal tissues by gastrokines and inhibitors” (The University of Chicago, priority 2001, dated 2009).

On to “LDALVKEKKLQGKGPGGPPPK [97–117, peptide 77-97 of the mature protein, same as 97-117 of the human precursor]”, for which the “growth of Staphylococcus epidermidis” value in experiment [1] is “did not alter the growth”. Further, the “stimulation of [3H]thymidine incorporation into DNA” value in the experiment with IEC-6 cells (P<0.001) is recorded as 68%. Also, the “[3H]thymidine incorporation into DNA” value in the experiment on IEC-6 cells (with peptide, without 16,668±616) is reported as 28,036±882. Besides, in the experiment on Klebsiella pneumoniae, the “growth of Klebsiella pneumoniae” value was “did not alter the growth”. Besides, the “growth of Enterococcus faecalis” value in the experiment with Enterococcus faecalis is recorded as “did not alter the growth”. Besides, in the experiment with Streptococcus agalactiae, the “growth of Streptococcus agalactiae” value is recorded as “did not alter the growth”. Also, the “mitogenic activity (in words)” value in experiment [2] (listed as peptide 97-107) was “equal to the 42-mer”; in experiment [2] (listed as peptide 97-117), “enhanced activity”. In addition, the “appearance of blood in the stool (bloody diarrhea) versus vehicle” value in experiment [3] (3% DSS, 10 mg/kg body weight/day s.c., listed as AMP peptide, 10 mg/kg/day) was “fewer animals; also recorded: delayed”. The “body weight loss versus vehicle” value in experiment [3] (3 days after switching from 3% DSS to water, 10 mg/kg s.c. daily) is “lost less weight”. Moreover, the “recovery of body weight” value in experiment [3] (day 7 after stopping DSS, listed as AMP peptide) is listed as “complete recovery; also recorded: completely recovered”.
